# Experiments:
# [1] = Relative HPLC elution times and hydrophobicities; assay type: physicochemical
# [2] = test system: isolated intact MN9D mitochondria; assay: Effects of Ca2+ and inhibitors on MN9D mitochondrial uptake of 4'I-MPP+; design: species or system mouse
# Experimental: Intact MN9D cell mitochondria were incubated with 200 μM 4'I-MPP^+ for 45 min at 37 °C in 0, 500 or 1000 nM Ca^2+ containing KCl buffer. When mNCX inhibitors (KBR7943, 2APB and CGP37157) were used, mitochondrial suspensions were initially incubated with 10, 25 or 50 μM inhibitor in KCl buffer for 10 min at 37 °C and then with 200 μM 4'I- MPP^+ for 45 min at 37 °C. After the incubations, samples were centrifuged at 7,000 x g at 4 °C for 10 min and the mitochondrial pellets were treated with 75 μL of 0.1 M HClO4. […] To visualize the effect of CGP37157 on the mitochondrial uptake of 4'I-MPP^+ in live cells, HepG2 cells grown in glass-bottomed plates were incubated with 50 μM CGP37157 for 30 min initially and then with 100 μM 4'I-MPP^+ and 200 nM MitoTracker Green FM in KRB-HEPES for 1 h at 37 °C. After incubation cells were washed and reconstituted with KRB-HEPES, pH 7.4 and 4'I-MPP^+ and MitoTracker Green FM fluorescence images of cells were recorded as detailed above. Controls were treated under the same experimental conditions, except that CGP37157 was omitted from the initial incubation.
# S4 Fig. Effects of Benzamil, Verapamil, FFA, and ruthenium red on the MN9D mitochondrial uptake of 4'I-MPP+. MN9D mitochondrial suspensions were initially incubated with a 50 μM concentration of the desired agent (10 μM Ruthenium red) in KCl buffer for 10 min at 37 °C and then incubated with 200 μM 4'I-MPP+ for 45 min at 37 °C. After the incubations, the […] 4'I-MPP+ contents were quantified by RP-HPLC-UV as described in Material and methods. The data are represented as mean ± S.D (n=3).
# (also on this page, place not known: contol 10uM Ru red BenzamilVerapamil FFA 4I' MPP+ uptake (nmoles/mg) 0.0 0.1 0.2 0.3 0.4 0.5)
# (1 picture or pasted object on this page, not shown here)
# HepG2 cells [3] = assay: Effect of CGP37157 and KBR7943 on 4'I-MPP+-mediated mitochondrial membrane depolarization (TMRM); assay type: cell-based, human; settings: 50 μM pre-treatment 30 min, 100 μM 4'I-MPP+
# Experimental: HepG2 cells grown in glass-bottomed plates for two days were treated with 50 μM CGP37157 or KBR7943 in KRB-HEPES for 30 min followed by 50 nM TMRM in KRB-HEPES for 45 min. Then plates were mounted on the stage of the microscope and mitochondrial membrane depolarization upon the treatment with 100 μM 4'I-MPP^+ was measured as a function of time as detailed above. The effect of CGP37157 on the 4'I-MPP^+ mediated mitochondrial membrane depolarization at longer time periods was monitored by observing the reduction of TMRM fluorescence from 0 to 4 h incubations in the presence or absence of CGP37157. HepG2 cells were incubated with or without 10 μM CGP37157 followed by 50 nM TMRM, and finally with 4'I-MPP^+ (100 μM, 0 or 4 h) and the intracellular TMRM fluorescence was recorded. Controls were carried out using an identical protocol except that either CGP37157 or 4'I-MPP^+ were omitted from the incubation media.
# [4] = test system: rat brain mitochondrial complex-I (NADH: ubiquinone oxidoreductase); assay: Ubiquinone dependent NADH oxidation (complex-I inhibition); assay type: biochemical
# Experimental: Isolated rat brain mitochondria were lysed by freeze-thawing in hypotonic media containing 25 mM K3PO4 and 5 mM MgCl2, pH 7.2 [22]. The complex-I (i.e. NADH: ubiquinone oxidoreductase) activity of mitochondrial membrane fragments were determined according to the procedure of Birch-Machin and Turnbull. Briefly, mitochondrial membranes (50 μg protein) were incubated with 130 μM NADH (final concentration) and Antimycine A (2 μg/mL) in a 1.0 mL assay solution containing 25 mM K3PO4, 5 mM MgCl2, 2 mM KCN, 2.5 mg/mL bovine serum albumin, pH 7.2, for 2 min at 37 °C with or without rotenone, MPP^+ or 4'I-MPP^+ (for further details see the corresponding figure legends). The complex-I mediated ubiquinone dependent NADH oxidation was initiated by adding ubiquinone-1 to a final concentration of 65 μM and the initial rates of the reactions were monitored by following the decrease in absorbance at 340 nm with respect to 425 nm reference wavelength for 5 min.
# MN9D cells [5] = assay: Cellular uptake of MPP+ and 4'I-MPP+ (HPLC-UV / fluorescence); assay type: cell-based, mouse; settings: 100 μM toxin, 60 min, 37 °C, KRB-HEPES
# Experimental: (§1) Cells were seeded into 12-well plates at 0.25 x 10^6 cells/well and grown 2–3 days to about 70–80% confluency. The media was removed and a solution containing 100 μM MPP^+ or 4'I-MPP^+ in warm KRB-HEPES (or without Ca^2+ and with 1.4 mM EGTA) was added to each well and incubated at 37 °C for the desired period of time (see Figure legends for further details). After the incubations, the media were removed and cells were washed with ice-cold KRB-HEPES. Washed cells were suspended in 1.0 mL of ice-cold KRB-HEPES and 50 μL aliquots were withdrawn for protein determination. The remaining cell suspensions were centrifuged at 5000 x g at 4 °C for 5 min and the cell pellets were treated with 75 μL of 0.1 M HClO4. The coagulated proteins were pelleted by centrifugation at 13,200 x g at 4 °C for 8 min and the MPP^+ or 4'I-MPP^+ contents of the supernatants were determined by C18-reversed-phase HPLC-UV (HPLC-UV) as previously described using standard curves constructed from authentic standards. The standard curves for HPLC-UV quantifications were constructed using authentic samples of MPP^+ and 4'I-MPP^+ under the same HPLC-UV separation conditions (S1 Fig).
# (§2) To quantify 4'I-MPP^+ uptake by fluorescence, MN9D or HepG2 cells grown in glass bottomed plates, washed, and reconstituted with KRB-HEPES (1.0 mL), pH 7.4, and mounted on the stage of a Nikon ECLIPSE Ti-S inverted fluorescence microscope. […]
# HepG2 cells [6] = assay: as above; assay type: cell-based, human; settings: 100 μM toxin, 60 min
# Experimental: as §1, §2
# MN9D cells [7] = assay: MTT cell viability assay; assay type: cell-based; settings: Mus musculus, 16 h incubation
# Experimental: (§3) Cell viability was determined by the MTT [3-(4,5-dimethylthiazol-2-yl)-2,5-diphenyltetrazolium bromide)] assay. Briefly, cells were seeded on 96-well plates and allowed to grow to about 70–80% confluence. Prior to the experiment, culture media was replaced with KRB-HCO3^- containing desired concentrations of MPP^+ or 4'I-MPP^+ and incubated for 16 h at 37 °C. After the incubation, 10 μL of 5 mg/mL MTT solution was added to each well and incubated for 2 h at 37 °C. The resulting formazan was solubilized by the addition of 210 μL detergent solution [50% DMF/H2O (v/v), 20% SDS (w/v)] followed by incubation at 37 °C for 12 h. The cell viabilities were determined by quantifying solubilized formazan by measuring the difference in the absorbance at 570 nm and 650 nm. Results were expressed as % viability of MPP^+ or 4'I-MPP^+ treated cells with respect to control cells, which were treated under the same conditions except in the absence of the MPP^+ or 4'I-MPP^+.
# HepG2 cells [8] = assay: MTT cell viability assay; assay type: cell-based, human; settings: MPP+ at 0–1000 μM, 4'I-MPP+ at 0–200 μM; 16 h
# Experimental: as §3
# MN9D cells [9] = assay: Intracellular ATP levels; assay type: cell-based, mouse; settings: 100 μM, 6 h at 37 °C
# Experimental: (§4) Cells grown in 12-well plates were treated with 100 μM MPP^+ or 4'I-MPP^+ in KRB-HEPES for 6 h at 37 °C. After the treatments, cells were suspended in 1 mL of ice-cold KRB-HEPES and 50 μL samples were withdrawn for protein quantification. The remaining cell suspensions were centrifuged for 3 min at 3,500 x g at 4 °C and the cell pellets were treated with 1 mL of lysis buffer (0.1 M Tris, 1% Triton X-100, pH 7.5) for 2 min and centrifuged at 3,500 x g for 3 min to remove the cell debris. The ATP contents of the supernatants were measured using a fluorometric ATP assay kit (BioVision, Milpitas CA, USA) following the manufacture’s guidelines. All ATP levels were normalized to the protein content of each sample.
# HepG2 cells [10] = assay: Intracellular ATP levels; assay type: cell-based, human; settings: 100 μM, 6 h at 37 °C
# Experimental: as §4
# MN9D cells [11] = assay: Intracellular ROS (DCFH-DA); assay type: cell-based, mouse; settings: 100 μM, 1 h at 37 °C
# Experimental: Cells grown in 12-well plates were incubated with 10 μM DCFH-DA in KRB-HEPES for 1 h. […] After the incubations, cells were washed, harvested, solubilized with 0.1 M Tris buffer (pH 7.5) containing 1% Triton X-100, and cell debris were removed by centrifugation at 13,200 x g for 8 min at 4 °C. The content of ROS-oxidized DCFH product, 2',7'-dichlorofluorescein (DCF) in the supernatants were quantified by fluorescence (Ex/Em 488/524 nm). The data were normalized to the protein contents of individual samples. ROS productions in DCFH-DA (50 μM) loaded 250 μM 4'I-MPP^+ treated (4 h) live MN9D cells were visualized by confocal fluorescence microscopy at Ex/Em 488/524 nm using a Leica TCS SP5II microscope.
# MN9D cells [12] = assay: Chromatin condensation test for apoptosis (DAPI); assay type: cell-based, mouse; settings: 250 μM, 12 h
# Experimental: MN9D cells grown in glass-bottomed plates were treated with 250 μM MPP^+ or 4'I- MPP^+ for 12 h and then with 300 nM DAPI in KRB-HEPES for 15 min in the dark at 37 °C [24]. Then cells were rinsed and PBS was added to cover the cell layer. Increase in nuclear DAPI fluorescence (Ex/Em at 358/461 nm) due to chromatin condensation was observed using a Nikon ECLIPSE Ti-S inverted fluorescence microscope. The controls were treated similarly except that MPP^+ or 4'I-MPP^+ was omitted from the initial incubation medium.
# MN9D or HepG2 cells = assay: Mitochondrial membrane potential depolarization (TMRM); assay type: cell-based; settings: 500 μM, in about 45 min
# Experimental: MN9D or HepG2 cells grown in glass-bottomed plates were treated with 50 nM TMRM (AnaSpec, Fremont CA, USA) in KRB-HEPES for 45 min in the dark. After mounting on the stage of a Nikon ECLIPSE Ti-S inverted fluorescence microscope, 15–20 ROIs with uniform fluorescence were selected and TMRM fluorescence at Ex/Em at 543/573 nm was recorded at 5 sec time intervals for 3 min. Then, MPP^+ or 4'I-MPP^+ was added to a final concentration of 500 or 100 μM, respectively and TMRM fluorescence measurements were continued for an additional 40 min for MPP^+ and 15 min for 4'I-MPP^+ at 15 sec time intervals. The background fluorescence was subtracted from the ROI fluorescence and averages of corrected data were used to estimate the magnitude of the mitochondrial membrane potential.
# [13] = 50 μM agent, 200 μM 4'I-MPP+ (S4 Fig)
# [14] = 50 μM inhibitor at 200 μM 4'I-MPP+
smiles,measurement,setting,value
C[n+]1ccc(-c2ccc(F)cc2)cc1 [4F' MPP^+],relative elution time (hydrophobicity),[1]; Buffer:CH3CN 70:30,6.44
same,relative elution time (hydrophobicity),[1]; Buffer:CH3CN:MeOH 60:30:10,5.68
same,relative elution time (hydrophobicity),[1]; Buffer:CH3CN:MeOH 65:25:10,6.60
NC(=NCc1ccccc1)NC(=O)c1nc(Cl)c(N)nc1N [benzamil],effect on uptake of 4'I-MPP+,[2]; [13],no significant effect
C[n+]1ccc(-c2ccc(Br)cc2)cc1 [4Br' MPP^+],relative elution time (hydrophobicity),[1]; Buffer:CH3CN 70:30,9.67
same,relative elution time (hydrophobicity),[1]; Buffer:CH3CN:MeOH 60:30:10,7.74
same,relative elution time (hydrophobicity),[1]; Buffer:CH3CN:MeOH 65:25:10,10.30
N=C(N)SCCc1ccc(OCc2ccc([N+](=O)[O-])cc2)cc1 [KBR7943],effect on uptake of 4'I-MPP+,[2]; [14],inhibit the uptake
same,effect on 4'I-MPP+ mitochondrial membrane depolarization,HepG2 cells [3],significantly reduced
C=C(C)[C@H]1Cc2c(ccc3c2O[C@@H]2COc4cc(OC)c(OC)cc4[C@@H]2C3=O)O1 [rotenone],inhibition of NADH oxidation (complex-I) activity,[4]; 10 μM,about 90%
NCCOB(c1ccccc1)c1ccccc1 [2APB],effect on uptake of 4'I-MPP+,[2]; [14],inhibit the uptake
N.N.N.N.N.N.N.N.N.N.N.N.N.N.[Cl-].[Cl-].[Cl-].[Cl-].[Cl-].[Cl-].[O-2].[O-2].[Ru+3].[Ru+3].[Ru+4] [ruthenium red],inhibition of 4'I-MPP+ uptake,"[2]; 10 μM ruthenium red, 200 μM 4'I-MPP+",~ 10%
COc1ccc(CCN(C)CCCC(C#N)(c2ccc(OC)c(OC)c2)C(C)C)cc1OC (centres unmarked) [verapamil],effect on uptake of 4'I-MPP+,[2]; [13],no significant effect
"C[n+]1ccc(-c2ccccc2)cc1 [MPP^+, 1-methyl-4-phenylpyridinium]",cellular uptake in 1 h,MN9D cells [5],0.6 nmoles/mg of protein
same,cellular uptake in 60 min,HepG2 cells [6],about 1.2 nmoles/mg
same,IC50,MN9D cells [7],~125 µM
same,HepG2 cell toxicity,HepG2 cells [8],resistant
same,inhibition of the complex-I activity,[4]; 200 μM,21%
same,effect on intracellular ATP levels,MN9D cells [9],deplete intracellular ATP levels
same,effect on intracellular ATP levels,HepG2 cells [10],deplete intracellular ATP levels
same,effect on ROS production,MN9D cells [11],increase ROS production
same,apoptotic cell death (chromatin condensation),MN9D cells [12],cause apoptotic MN9D cell death
same,depolarization of the mitochondrial membrane,MN9D or HepG2 cells,20–50%
same,relative elution time (hydrophobicity),[1]; Buffer:CH3CN 70:30,5.92
same,relative elution time (hydrophobicity),[1]; Buffer:CH3CN:MeOH 60:30:10,5.28
same,relative elution time (hydrophobicity),[1]; Buffer:CH3CN:MeOH 65:25:10,6.02
C[n+]1ccc(-c2ccc(Cl)cc2)cc1 [4Cl' MPP^+],relative elution time (hydrophobicity),[1]; Buffer:CH3CN 70:30,8.66
same,relative elution time (hydrophobicity),[1]; Buffer:CH3CN:MeOH 60:30:10,7.08
same,relative elution time (hydrophobicity),[1]; Buffer:CH3CN:MeOH 65:25:10,9.17
